Experiments:
deiodination = details: cited from earlier work
[1] = test system: cerebellar granule neurons; test: release of FM1-43-loaded synaptic vesicles from cerebellar granule neurons under continuous stimulus; format: cell-based, rat; details: 10 nM hormone; continuous stimulation by 50 mM KCl; vs no hormone controls; first order kinetics assumed
Description: Granule neurons were grown for 7 days and rendered hormone free by growth in serum-free medium as detailed above. Coverslips were then placed in a perfusion chamber, mounted on the stage of a laser scanning confocal microscope and perfused at 1 ml/min at 25° C. with perfusion buffer (119 mM NaCl, 2.5 mM KCl, 2 mM CaCl2, 2 mM MgCl2, 25 mM HEPES (pH 7.4), 30 mM glucose, and […] AP-5). The effects of different hormones on synaptic vesicle trafficking were then determined. […] Depolarizing KCl was then removed from the perfusion buffer and the cells were exposed to FM1-43 for an additional 30 seconds to insure complete loading of recycling synaptic vesicles. Loaded cells were then washed free of dye and the cells were perfused for ten minutes at rest.
Images of a single field of neuronal fibers were then taken immediately before adding a second depolarizing solution (perfusion buffer containing 50 mM KCl) and at one and two minutes after beginning the continuous stimulation by 50 mM KCl. Thirty to forty-five individual FM1-43 labeled nerve terminals were identified in the baseline images (taken prior to depolarization) and the change in fluorescence (DF) for each nerve terminal determined at the one and two minute time points. FIGS. 11A and 11B show the results of analysis of the hormone specificity of synaptic vesicle trafficking (FIG. 11A) and the influence of individual myo5a mutants (FIG. 11B) on synaptic vesicle transport in granule neurons.
To evaluate the role of myo5a in synaptic vesicle transport, three different myo5a constructs were introduced into the neurons by replication-deficient adenoviral vectors (Δmyo5a^tail(MyoV^tail), Δmyo5a^c-term(MyoV^1830)and ΔMyo5a^CC(MyoV^cc) see FIG. 5) as described above. […] Neurons were infected with purified Ad5-constructs (MOI=10) 48 hours prior to the synaptic vesicle trafficking study, and allowed to recover in hormone (T4) supplemented medium. […] This modest influence of the VBD mutant on synaptic vesicle retention is likely to be due to the loss of the kinesin-binding domain that limits its delivery to nerve terminals.

[2] = target: binding of p29^GFP vesicles to F-actin; test: modified in vitro actin binding assay with p29^GFP-labeled vesicles; format: biochemical, rat; details: 0-100 nM, 20 minutes at 37° C.; read-out: EC50, increase in quantity of p29^GFP bound to F-actin
Description: To define the specific region(s) of the myosin V tail that interact with the p29 vesicle, a series of deletion mutations were created based on the dominant negative effect of exogenous myosin V tail on p29 vesicle binding. Competition analysis of the myosin V deletion mutations on T4-dependent binding of p29 vesicles to F-actin was performed using a modified in vitro assay in which a GFP-tagged p29 fusion protein (p29^GFP) replaced the radioaffinity labeled native p29 (Farwell et al., 1990, J. Biol. Chem. 265:18546-18553; Farwell et al., 1993, J. Biol. Chem. 268:5055-5062). This allowed direct evaluation of the binding of fluorescent vesicles to F-actin without affinity radiolabeling of the p29 and subsequent SDS-PAGE analysis.
Specific fluorescence at 510 nm (excitation, 488 nm) was then determined in the resuspended Triton-insoluble pellets.
To determine if the myosin V tail could be captured by the p29^GFP vesicle, an exogenous myosin V^tail was introduced into astrocytes constitutively expressing p29^GFP by infection with Ad5-ΔMyo V^tail virus particles and examined the effects of T4 on the binding of the myosin V^tail to immunopurified p29^GFP vesicles. Astrocytes expressing p29^GFP were grown in serum-free media and treated for 16 hours with 1 mM bt2cAMP and 100 nM hydrocortisone. A separate pool of astrocytes was treated in serum-free media supplemented with 10 μM retinoic acid. Cells were collected by scraping, and lysed by two freeze-thaw cycles. […] Triton-soluble (vesicle) and Triton-insoluble (F-actin) fractions were separated by microflige centrifugation. Triton pellets were resuspended in 300 μl of PBS and fluorescence at 510 nm (excitation 488 nm) determined and relative fluorescence was reported as arbitrary units. Cells were treated with 10 nM T4 for twenty minutes and a Triton-soluble supernatant was prepared. Vesicles containing the p29^GFP were immunoprecipitated by anti-GFP IgG (2 μg/ml) and protein in the immunoprecipitates were resolved by SDS-PAGE. Immunoblot analysis of vesicle-associated myosin V was performed using the anti-myosin V antibody directed against the C-terminus.
The quantity of each mutant protein synthesized was determined by [^35 S]-methionine incorporation. Astrocytes expressing p29^GFP were grown in serum-free media and treated for 16 hours with […] bt2cAMP and 100 nM hydrocortisone. p29^GFP V-lysate and F-lysate were prepared as described herein. 100 μg aliquots of p29^GFP V-lysate and F-lysate were pre-incubated, in triplicate, for 20 minutes at 37° C. in the presence of individual Δ myosin V mutant proteins (˜2-3 pmol polypeptide/50 μl mixture) were added to the actin-binding assay and pre-incubated for 20 minutes at 37° C. T4 (10 nM) was then added, the mixtures incubated for 20 minutes at 37° C., and F-actin bound, fluorescent p29^GFP vesicles were then isolated in the Triton-insoluble pellet.
V lysates prepared from astrocytes over-expressing p29^GFP were pre-incubated for 30 minutes at room temperature with antisera raised against ΔTRα2, ΔTRα1, the C-terminus of MyoV (encoded by MyoV^tail, FIG. 5), the coiled-coil region of MyoV (encoded by MyoV^coil-coil, FIG. 5) and GFP (green fluorescent protein). T4 (10 nM) and actin fiber-containing F-lysate was then added, the mixtures incubated at 37° C. for 20 minutes, and the Triton-insoluble fraction isolated by centrifugation.

ΔTRα1 = ΔTRα1 (Rattus norvegicus, UniProt P63059); test: [125I]rT3 displacement from cell-free translated ΔTRα1; format: binding; details: cell-free translated polypeptide
Excerpt: (§1) ΔTRα1 and ΔTRα2 polypeptides were synthesized by cell-free translation of appropriate segments of the rat ΔTRα1 and ΔTRα2 cDNA using the coupled transcription-translation kit from Promega® (TNT) according to the manufacturer's instructions.

[3] = target: T1, ΔTRα2 (T4 Inactivating Protein; TIP) (Rattus norvegicus, UniProt P63059); test: rT3 binding displacement in nuclei-free extracts of cultured rat astrocytes
T1 construct: ΔTRα2 is encoded by exons 8-10 resulting in an approximately 25 kd protein
Description: The properties of thyroid hormone binding to non-nuclear components of the cell were examined using ΔTRα2 (T4 Inactivating Protein; TIP)-containing, nuclei-free extracts of cultured rat astrocytes. […] Both rT3 and T4 specifically displace rT3 with Kd's of approximately 0.3-0.5 nM.

astrocytes = test: subcellular distribution of immunoreactive TRα2-derived proteins in cultured astrocytes; format: cell-based, rat; details: serum-free medium, treated 20 minutes, 0.1% bovine serum albumin carrier
Excerpt: The subcellular distribution of immunoreactive thyroid hormone receptor-derived proteins in primary brain cell cultures and in cultured astrocytes was examined. Primary brain cell cultures were fixed with 0.4% paraformaldehyde, permeabilized with Triton X-100®, and stained for TRα-derived proteins using specific antisera directed against the unique C-termini of TRα1 and TRα2 proteins, and visualized by staining with a secondary tagged antibody. Consistent with previous observations (Kolodny et al., 1985, Endocrinol. 117: 1848-1857), immunoreactive TRα1 proteins were found in the nuclei of astrocytes and neuronal cells. However, TRα2-derived proteins were not localized to the nucleus in either astrocytes or neurons, but appeared as donut shaped structures located throughout the astrocyte or as discreet punctate signals along neuronal fibers. This latter pattern is diagnostic for synapses in neuronal cultures (Wong et al., 1999, Neurosci. 89:221-233), and is consistent with the presence of ΔTRα2-derived protein in nerve terminals.
The subcellular distribution of immunoreactive TRα2-derived proteins in cultured astrocytes was influenced by the presence of either T4 or rT3. In these experiments astrocytes were grown in serum-free medium, treated for 20 minutes with either […] or rT3, and fixed, permeabilized, and stained as described above. […]

ΔTRα2 = target: T2, ΔTRα2 (Rattus norvegicus, UniProt P63059); test: [125I]rT3 displacement from cell-free translated ΔTRα2; format: binding; details: cell-free translated polypeptide
T2 sequence (P63059 256-492): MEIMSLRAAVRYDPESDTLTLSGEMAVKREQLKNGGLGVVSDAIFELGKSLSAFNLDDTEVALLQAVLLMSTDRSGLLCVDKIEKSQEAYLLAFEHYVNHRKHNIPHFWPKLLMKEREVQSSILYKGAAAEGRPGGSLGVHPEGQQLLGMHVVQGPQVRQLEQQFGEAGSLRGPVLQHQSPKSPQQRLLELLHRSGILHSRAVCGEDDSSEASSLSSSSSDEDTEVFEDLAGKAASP
Excerpt: as §1

[4] = test system: Ca-dependent Mg-ATPase release of p29 vesicles from F-actin; test: release of F-actin-bound p29 vesicles by Ca-dependent Mg-ATPase; format: biochemical, rat; details: 5 mM EGTA
Excerpt: To determine whether this is a direct interaction between the vesicle and F-actin or is mediated by other actin-bound proteins, e.g., myosin V, the release of p29 vesicle bound to F-actin by activating a Ca-dependent Mg-ATPase was investigated. Synaptic vesicle-bound myosin V is released from F-actin by activating the Ca-dependent MgATPase found in the actin binding head of myosin V (Prekeris et al, 1997, J. Cell Biol. 137: 1589-1601; Nascimento et al., 1996, J. Biol. Chem. 271:17561-17569). In this experiment, confluent monolayers of astrocytes were grown in serum-free media for 16 hours, then D2 activity was induced with bt2cAMP and hydrocortisone, and the p29 vesicle was affinity radiolabeled with BrAc[^125I]T4. Cell lysates containing approximately 50,000 cpm of BrAc[^125I]T4-labeled p29 were pretreated with 10 nM […] at 37° C., followed by an additional 20 minute incubation with 0.1 mM Ca^2+, 1 mM Mg^2+, 0.1 mM ATP, or 5 mM EGTA. Triton-insoluble (F-actin bound) pellets were prepared as described herein. […] Triton-insoluble (F-actin-bound) pellets were separated from the Triton-soluble (vesicle) fraction by microfuge centrifugation (14,000×g for five minutes) and the distribution of p29 was determined by y-counting, and by SDS-PAGE analysis.

transthretin = transthretin (Homo sapiens, UniProt P02766); details: cited from earlier work
D2 activity = details: in astrocytes; cited from earlier work
T4 deiodinases = details: cited from earlier work

T1 sequence (P63059 whole entry, stated change not applied): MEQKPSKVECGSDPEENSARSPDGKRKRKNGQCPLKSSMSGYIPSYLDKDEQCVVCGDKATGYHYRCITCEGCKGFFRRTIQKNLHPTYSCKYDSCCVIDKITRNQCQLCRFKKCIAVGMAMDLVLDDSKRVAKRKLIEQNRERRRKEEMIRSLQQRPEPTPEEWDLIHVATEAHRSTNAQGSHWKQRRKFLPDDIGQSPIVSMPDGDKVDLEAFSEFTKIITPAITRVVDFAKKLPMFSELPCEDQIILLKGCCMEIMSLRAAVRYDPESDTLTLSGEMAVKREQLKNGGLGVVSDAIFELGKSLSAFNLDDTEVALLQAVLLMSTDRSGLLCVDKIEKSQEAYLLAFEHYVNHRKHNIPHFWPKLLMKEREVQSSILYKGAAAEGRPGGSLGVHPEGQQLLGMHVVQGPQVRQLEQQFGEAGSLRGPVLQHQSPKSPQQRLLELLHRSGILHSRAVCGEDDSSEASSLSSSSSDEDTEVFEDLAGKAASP

O=C(CCc1ccc(O)cc1)c1c(O)cc(O)cc1O [phloretin]
inhibition of deiodination (deiodination): potent inhibitor

N[C@@H](Cc1ccc(Oc2cc(I)c(O)c(I)c2)c(I)c1)C(=O)O [rT3, 3, 3′, 5′-triiodothyronine]
decrease of the rate of FM1-43 release [1]: 75% | EC50 [2]: ~0.5 nM | Kd (ΔTRα1): 0.3 to 1 nM | Kd [3]: 0.3 to 0.5 nM | subcellular distribution of TRα2-derived proteins (astrocytes): coalescence of the TRα2-derived proteins around the perinuclear space | Kd (ΔTRα2): 0.3 to 1 nM

O=C(O)CN(CCOCCOCCN(CC(=O)O)CC(=O)O)CC(=O)O [EGTA]
block of Ca2+-stimulated, Mg2ATPase-dependent release of p29 from F-actin [4]: more than 50%

Cc1c(-c2cc(Br)c(O)c(Br)c2)oc2ccc(O)cc2c1=O [EMD21388]
block of the binding of T4 to transthretin (transthretin): competitively block | quantity of D2 activity (D2 activity): decreases the quantity of D2 activity | inhibition of T4 deiodinases (T4 deiodinases): can inhibit

— patent US7374890B2, “Methods for identifying compounds that modulate ΔTRα2 activity” (University of Massachusetts, priority 2000, dated 2008)
